Experimental data reported in patent US4678782A, “3S-formamido azetidinone antibacterial agents, their preparation and use” (Beecham Group p.l.c., priority 1982, dated 1987).

Experiments:
Format in all cases: cell-based
E. coli JT4 = assay: standard microtitre (MIC) test, E. coli JT4; details: Escherichia coli
From the text: (§1) In a standard microtitre (MIC) test, the compound of Example 14 gave the following data: […]

E. coli NCTC 10418 = assay: standard microtitre (MIC) test, E. coli NCTC 10418; details: Escherichia coli, NCTC10418
From the text: as §1

S. marcescens US32 = assay: standard microtitre (MIC) test, S. marcescens US32; details: Serratia marcescens
From the text: as §1

K. aerogenes A = assay: standard microtitre (MIC) test, K. aerogenes A; details: Klebsiella aerogenes
From the text: as §1

E. cloacae N1 = assay: standard microtitre (MIC) test, E. cloacae N1; details: Enterobacter cloacae
From the text: as §1

P. morganii = assay: standard microtitre (MIC) test, P. morganii; details: Morganella morganii
From the text: as §1

S. aureus Russell = assay: standard microtitre (MIC) test, S. aureus Russell; details: Staphylococcus aureus
From the text: as §1

MIC (E. coli JT4): 25 µg/mL
MIC (E. coli NCTC 10418): 12.5 µg/mL
MIC (S. marcescens US32): 12.5 µg/mL
MIC (K. aerogenes A): 3.2 µg/mL
MIC (E. cloacae N1): 12.5 µg/mL
MIC (P. morganii): 6.4 µg/mL
MIC (S. aureus Russell): 3.2 µg/mL
SMILES: CCN1CCN(C(=O)N[C@@H](C(=O)NC2(NC=O)CN(S(=O)(=O)O)C2=O)c2ccccc2)C(=O)C1=O (stereo partly drawn) [Example 14, (3RS)-Potassium-3-[D-2-(4-Ethyl-2,3-dioxopiperazin-1-yl-carboxamido)-2-phenylacetamido]-3-formamido-2-oxo-azetidine-1-sulphonate]
